target: T1, recombinant human GST-Syk (Homo sapiens, UniProt P43405); assay: Homogeneous Time-Resolved Fluorescence (HTRF) assay for the recombinant human Syk enzyme; type: biochemical; details: recombinant human GST-Syk 5 pM, ATP 25 μM, 10-dose titration 10 μM to 0.508 nM; read-out: rhSYK Activity IC50
T1 construct: purchased Carna Biosciences 08-176
Procedure, shortened: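 GST-hSyk fusion protein phosphorylated a peptide for 45 min at room temperature. The reaction was quenched with 2 nM Eu-anti-phosphotyrosine antibody and 70 nM SA-APC in 15 mM Tris pH 7.5, 40 mM EDTA, 0.01% Tween 20. The HTRF signal was read after 30 min.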

| Structure (SMILES) | IC50 [nM] |
| --- | --- |
| Cc1cc(Nc2nccc(C(F)(F)F)n2)cc(-c2cn(Cc3noc(C)n3)nn2)c1 [Example 5.69, N-(3-methyl-5-{1-[(5-methyl-1,2,4-oxadiazol-3-yl)methyl]-1H-1,2,3-triazol-4-yl}phenyl)-4-(trifluoromethyl)pyrimidin-2-amine] | 57.2 |
| Cc1cc(Nc2cc(C(F)F)ccn2)nc(-c2cn(CC3OC(=O)NC3C)nn2)c1 (single isomer, unassigned) [Example 7.43, 5-{[4-(6-{[4-(difluoromethyl)pyridin-2-yl]amino}-4-methylpyridin-2-yl)-1H-1,2,3-triazol-1-yl]methyl}-4-methyl-1,3-oxazolidin-2-one] | 3.8 |
| Cc1cc(Nc2nccc(C(F)F)n2)cc(-c2cn(C3CCCC(O)C3O)nn2)c1 (single isomer, unassigned) [Example 25.1, 3-(4-(3-((4-(Difluoromethyl)pyrimidin-2-yl)amino)-5-methylphenyl)-1H-1,2,3-triazol-1-yl)cyclohexane-1,2-diol] | 9.5 |
| Cc1cc(Nc2nccc(C(F)(F)F)n2)cc(-c2cn(CC3(O)CCC(C(=O)O)C(C)(C)C3)nn2)c1 (single isomer, unassigned) [Example 3.3, (R or S) 4-hydroxy-2,2-dimethyl-4-{[4-(3-methyl-5-{4-(trifluoromethyl)pyrimidin-2-yl]amino}phenyl)-1H-1,2,3-triazol-1-yl]methyl}cyclohexanecarboxylic acid] | 54.3 |
| Cc1cc(Nc2nccc(C3CC3)n2)cc(-c2cn(CC(C)(O)C(C)(C)O)nn2)c1 (centres unmarked) [Example 21.26, 1-(4-{3-[(4-cyclopropylpyrimidin-2-yl)amino]-5-methylphenyl}-1H-1,2,3-triazol-1-yl)-2,3-dimethylbutane-2,3-diol] | 12.7 |
| Cc1cc(Nc2nccc(C3CC3)n2)cc(-c2cn(CC(C)(O)C(C)(C)O)nn2)c1 (centres unmarked) [Example 21.14, 1-(4-{3-[(4-cyclopropylpyrimidin-2-yl)amino]-5-methylphenyl}-1H-1,2,3-triazol-1-yl)-2,3-dimethylbutane-2,3-diol] | 7.4 |
| Cc1cc(Nc2cc(C(F)(F)F)ccn2)nc(-c2cn(C(C)C(N)=O)nn2)c1 (centres unmarked) [Example 1.25, 2-[4-(4-methyl-6-{[4-(trifluoromethyl)pyridin-2-yl]amino}pyridin-2-yl)-1H-1,2,3-triazol-1-yl]propanamide] | 8.8 |
| Cc1cc(Nc2cc(C(F)F)ccn2)nc(-c2cn(C3CCCC(O)C3O)nn2)c1 (centres unmarked) [Example 21.38, 3-(4-(6-((4-(difluoromethyl)pyridin-2-yl)amino)-4-methylpyridin-2-yl)-1H-1,2,3-triazol-1-yl)cyclohexane-1,2-diol] | 3.7 |
| Cc1cc(Nc2cc(C(F)(F)F)ccn2)nc(-c2cn(C3CCC(C(=O)O)C(C)(C)C3)nn2)c1 (single isomer, unassigned) [Example 3.9, 2,2-dimethyl-4-[4-(4-methyl-6-{[4-(trifluoromethyl)pyridin-2-yl]amino}pyridin-2-yl)-1H-1,2,3-triazol-1-yl]cyclohexanecarboxylic acid] | 3 |
| COc1nc(Nc2cc(C)cc(-c3cn(CC(C)(O)C(C)(C)O)nn3)c2)ncc1F (centres unmarked) [Example 21.33, 1-(4-{3-[(5-fluoro-4-methoxypyrimidin-2-yl)amino]-5-methylphenyl}-1H-1,2,3-triazol-1-yl)-2,3-dimethylbutane-2,3-diol] | 66.3 |
| Cc1cc(Nc2cc(C(F)(F)F)ccn2)nc(-c2cn(CC3(O)CCOC3)nn2)c1 (single isomer, unassigned) [Example 5.12, 3-{[4-(4-methyl-6-{[4-(trifluoromethyl)pyridin-2-yl]amino}pyridin-2-yl)-1H-1,2,3-triazol-1-yl]methyl}tetrahydrofuran-3-ol] | 11.2 |
| Cc1cc(Nc2cc(C(F)(F)F)ccn2)nc(-c2cn([C@H](C)C(=O)NCC(N)=O)nn2)c1 [Example 1.21, (2R)-N-(2-amino-2-oxoethyl)-2-[4-(4-methyl-6-{[4-(trifluoromethyl)pyridin-2-yl]amino}pyridin-2-yl)-1H-1,2,3-triazol-1-yl]propanamide] | 23.1 |
| Cc1cc(Nc2cc(C(F)F)ccn2)nc(-c2cn(CC(C)(O)C(C)(C)O)nn2)c1 (centres unmarked) [Example 21.9, 1-[4-(6-{[4-(difluoromethyl)pyridin-2-yl]amino}-4-methylpyridin-2-yl)-1H-1,2,3-triazol-1-yl]-2,3-dimethylbutane-2,3-diol] | 13.5 |
| Cc1cc(Nc2nccc(C(F)(F)F)n2)cc(-c2cn(CC(=O)O)nn2)c1 [Example 5.58, [4-(3-methyl-5-{[4-(trifluoromethyl)pyrimidin-2-yl]amino}phenyl)-1H-1,2,3-triazol-1-yl]acetic acid] | 61.3 |
| Cc1cc(Nc2ncc(F)c(C(F)F)n2)cc(-c2cn(C3CCCCC3(C)O)nn2)c1 (single isomer, unassigned) [Example 7.26, 2-[4-(3-{[4-(difluoromethyl)-5-fluoropyrimidin-2-yl]amino}-5-methylphenyl)-1H-1,2,3-triazol-1-yl]-1-methylcyclohexanol] | 13.1 |
| Cc1cc(Nc2cc(C(F)(F)F)ccn2)nc(-c2cn(C3CN(C(=O)C(C)O)CC3O)nn2)c1 (single isomer, unassigned) [Example 13.2, 1-[2-hydroxypropanoyl]-4-[4-(4-methyl-6-{[4-(trifluoromethyl)pyridin-2-yl]amino}pyridin-2-yl)-1H-1,2,3-triazol-1-yl]pyrrolidin-3-ol] | 23.6 |
| Cc1cc(Nc2cc(C(F)(F)F)ccn2)nc(-c2cn(CC3(O)CCOC3)nn2)c1 (racemic) [Example 5.13, 3-{[4-(4-methyl-6-{[4-(trifluoromethyl)pyridin-2-yl]amino}pyridin-2-yl)-1H-1,2,3-triazol-1-yl]methyl}tetrahydrofuran-3-ol] | 11.7 |
| Cc1cc(Nc2cc(OC3CCC3)ccn2)nc(-c2cn(C(C)c3ccc(C(=O)O)cc3)nn2)c1 (centres unmarked) [Example 2.8, 4-{1-[4-(6-{[4-(cyclobutyloxy)pyridin-2-yl]amino}-4-methylpyridin-2-yl)-1H-1,2,3-triazol-1-yl]ethyl}benzoic acid] | 5050 |
| Cc1cc(Nc2cc(C(F)(F)F)ccn2)nc(-c2cn(C3CN(C(=O)CCC(N)=O)CC3O)nn2)c1 (centres unmarked) [Example 13.5, 4-{-3-hydroxy-4-[4-(4-methyl-6-{[4-(trifluoromethyl)pyridin-2-yl]amino}pyridin-2-yl)-1H-1,2,3-triazol-1-yl]pyrrolidin-1-yl}-4-oxobutanamide] | 15 |
| Cc1cc(Nc2nccc(C(F)F)n2)cc(-c2cn(C3CCCCC3O)nn2)c1 (centres unmarked) [Example 4.34] | 4.1 |
| Cc1cc(Nc2ncc(Cl)c(C)n2)cc(-c2cn(CC(C)(O)C(C)(C)O)nn2)c1 (centres unmarked) [Example 21.11, 1-(4-{3-[(5-chloro-4-methylpyrimidin-2-yl)amino]-5-methylphenyl}-1H-1,2,3-triazol-1-yl)-2,3-dimethylbutane-2,3-diol] | 182 |
| Cc1cc(Nc2cc(C(F)(F)F)ccn2)nc(-c2cn(C[C@@H](O)C(N)=O)nn2)c1 [Example 1.14, (2R)-2-hydroxy-3-[4-(4-methyl-6-{[4-(trifluoromethyl)pyridin-2-yl]amino}pyridin-2-yl)-1H-1,2,3-triazol-1-yl]propanamide] | 9.1 |
| CC/C=C/Cn1cc(-c2cc(C)cc(Nc3cc(C(F)(F)F)ccn3)n2)nn1 [Example 5.31, 4-methyl-6-{1-[(2E)-pent-2-en-1-yl]-1H-1,2,3-triazol-4-yl}-N-[4-(trifluoromethyl)pyridin-2-yl]pyridin-2-amine] | 48.6 |
